What was measured:
slender amaranth = assay: Upland soil treatment test (5); assay type: in vivo; conditions: dosage 100 g a.i./hectare, 20th day after treatment; note: ranges in brackets are in %
Description: (§1) 90 Parts by weight of the above carrier and 10 parts by weight of each of Compounds obtained in the above Preparation Examples were uniformly pulverized and mixed to obtain herbicides. Further, for Herbicide Comparative Examples, comparative herbicides were prepared by uniformly pulverizing and mixing 90 parts by weight of the above carrier and 10 parts by weight of each of the following Compounds x, y, A, B and C.
(§2) (5) Biological Test (Upland Soil Treatment Test, Herbicide Examples 10-26 and Comparative Example 9)
(§3) Seeds of weeds such as large crabgrass, barnyard grass, green foxtail, cocklebur, velvetleaf and slender amaranth and seeds of corn, wheat and barley were sown in 1/5,000-are Wagner pots filled with upland soil, and covered with upland soil. Then, a predetermined amount of the herbicide prepared in the above (1) was suspended in water and uniformly sprayed onto the soil surface. Thereafter, the plants were grown in the greenhouse, and on 20th day after the treatment, the herbicide was evaluated for herbicidal efficacy.
(§4) The dosage of each herbicide is indicated as an amount of the active ingredient per hectare. Further, air-dried weight were measured, and herbicidal efficacy and the pytotoxicity to corn are shown on the basis of the ratings described below.

cocklebur = assay: Upland soil treatment test (5); assay type: in vivo; conditions: dosage 100 g a.i./hectare, 20th day after treatment; note: ranges in brackets are in %
Description: as §1, §2, §3, §4

green foxtail = assay: Upland soil treatment test (5); assay type: in vivo; conditions: dosage 100 g a.i./hectare, 20th day after treatment; note: ranges in brackets are in %
Description: as §1, §2, §3, §4

barnyard grass [1] = assay: Upland soil treatment test (5); assay type: in vivo; conditions: dosage 100 g a.i./hectare, 20th day after treatment; note: ranges in brackets are in %
Description: as §1, §2, §3, §4

velvetleaf = assay: Upland soil treatment test (5); assay type: in vivo; conditions: dosage 100 g a.i./hectare, 20th day after treatment; note: ranges in brackets are in %
Description: as §1, §2, §3, §4

large crabgrass = assay: Upland soil treatment test (5); assay type: in vivo; conditions: dosage 100 g a.i./hectare, 20th day after treatment; note: ranges in brackets are in %
Description: as §1, §2, §3, §4

corn = assay: Upland soil treatment test (5), phytotoxicity; assay type: in vivo; conditions: dosage 100 g a.i./hectare, 20th day after treatment
Description: as §1, §2, §3, §4

paddy rice = assay: Submergence soil treatment test (4), phytotoxicity; assay type: in vivo; conditions: twenty days after treatment
Description: as §1
(§5) (4) Biological Test (Submergence Soil Treatment Test, Herbicide Examples 5˜9 and Comparative Examples 5˜8 and Reference Example 1 and 2)
(§6) 1/15,500-are porcelain pots were filled with paddy field soil, and seeds of barnyard grass and umbrella plant were sown in a surface layer of the soil, and paddy rice at the 2-leaf stage was transplanted. Then, the weeds were treated by uniformly spraying a diluted solution of a predetermined amount of the herbicide prepared in the above (1) onto the water surface at the time of germination of the weeds, and then the pots were allowed to stand in a greenhouse while water was properly sprayed. […] The dosage of each herbicide is shown as an amount of the active ingredient per 10 areas. Further, air-dried weights were measured, and the herbicidal efficacy and the phytotoxicity to the paddy rice were shown as follows.

barnyard grass [2] = assay: Submergence soil treatment test (4); assay type: in vivo; conditions: twenty days after treatment; note: ranges in brackets are in %
Description: as §1, §5, §6

umbrella plant = assay: Submergence soil treatment test (4); assay type: in vivo; conditions: twenty days after treatment; note: ranges in brackets are in %
Description: as §1, §5, §6

melting point | SMILES | Herbicidal Efficacy slender amaranth (slender amaranth) | Herbicidal Efficacy cocklebur (cocklebur) | Herbicidal Efficacy green foxtail (green foxtail) | Herbicidal Efficacy barnyard grass (barnyard grass [1]) | Herbicidal Efficacy velvetleaf (velvetleaf) | Herbicidal Efficacy large crabgrass (large crabgrass) | Phyto-toxicity to corn (corn) | Phytotoxicity to paddy rice (paddy rice; dosage 1 g a.i./10 are) | Herbicidal Effficacy barnyard grass (barnyard grass [2]; dosage 1 g a.i./10 are) | Herbicidal Effficacy umbrella plant (umbrella plant; dosage 1 g a.i./10 are) | Phytotoxicity to paddy rice (paddy rice; dosage 3 g a.i./10 are) | Phytotoxicity to paddy rice (paddy rice; dosage 10 g a.i./10 are) | Herbicidal Effficacy barnyard grass (barnyard grass [2]; dosage 3 g a.i./10 are) | Herbicidal Effficacy barnyard grass (barnyard grass [2]; dosage 10 g a.i./10 are) | Herbicidal Effficacy umbrella plant (umbrella plant; dosage 3 g a.i./10 are) | Herbicidal Effficacy umbrella plant (umbrella plant; dosage 10 g a.i./10 are)
– | CCn1ncc(C(=O)c2cc(C)c3c(c2C)C(C)(C)CCS3(=O)=O)c1OCC(=O)c1ccccc1 [Compound 25] | 5 (0) | 5 (0) | 2 (41-60) | 2 (41-60) | 5 (0) | 5 (0) | 0 (100) | – | – | – | – | – | – | – | – | –
263.7 to 263.9 °C | CCn1ncc(C(=O)c2cc(Cl)c3c(c2Cl)C(C)(C)CCS3)c1O [Compound 3] | – | – | – | – | – | – | – | – | – | – | – | – | – | – | – | –
– | CCn1ncc(C(=O)c2cc(C)c3c(c2C)C(C)(C)CCS3(=O)=O)c1OS(=O)(=O)c1ccc(OC)cc1 [Compound 14] | 5 (0) | 5 (0) | 2 (41-60) | 5 (0) | 5 (0) | 5 (0) | 0 (100) | 0 (100) | 5 (0) | 3 (21-40) | – | – | – | – | – | –
165.2 to 169 °C | CCn1ncc(C(=O)c2cc(C)c3c(c2C)C(C)(C)CCS3)c1OC(=O)c1ccc(Cl)cc1Cl [Compound 23] | – | – | – | – | – | – | – | – | – | – | – | – | – | – | – | –
– | CCCCC(=O)Oc1c(C(=O)c2cc(C)c3c(c2C)C(C)(C)CCS3(=O)=O)cnn1CC [Compound 20] | – | 5 (0) | 2 (41-60) | 3 (21-40) | 5 (0) | 5 (0) | 0 (100) | – | – | – | – | – | – | – | – | –
– | CCn1ncc(C(=O)c2cc(C)c3c(c2C)C(C)(C)CCS3(=O)=O)c1OS(=O)(=O)c1ccc([N+](=O)[O-])cc1 [Compound 13] | 2 (41-60) | 5 (0) | 2 (41-60) | 3 (21-40) | 5 (0) | 5 (0) | 0 (100) | – | – | – | – | – | – | – | – | –
– | CCCCCCC(=O)Oc1c(C(=O)c2cc(C)c3c(c2C)C(C)(C)CCS3(=O)=O)cnn1CC [Compound 21] | 5 (0) | 5 (0) | 4 (1-20) | 5 (0) | 5 (0) | 5 (0) | 0 (100) | – | – | – | – | – | – | – | – | –
– | CCCS(=O)(=O)Oc1c(C(=O)c2cc(C)c3c(c2C)C(C)(C)CCS3(=O)=O)cnn1CC [Compound 9] | 5 (0) | 5 (0) | 5 (0) | 5 (0) | 5 (0) | 5 (0) | 0 (100) | – | – | – | – | – | – | – | – | –
– | CCn1ncc(C(=O)c2cc(C)c3c(c2C)C(C)(C)CCS3(=O)=O)c1OS(=O)(=O)c1ccc(C)cc1 [Compound 12] | 5 (0) | – | 1 (61-80) | 5 (0) | 5 (0) | 5 (0) | 0 (100) | – | – | – | – | – | – | – | – | –
– | CCn1ncc(C(=O)c2cc(C)c3c(c2C)C(=NOC)CCS3(=O)=O)c1O [Comp'd C, reference compound] | – | – | – | – | – | – | – | – | – | – | 2 (90-94) | 5 | 0 (81-100) | 4 (1-20) | 3 (21-40) | 5 (0)
– | CCn1ncc(C(=O)c2cc(C)c3c(c2C)C(C)(C)CCS3)c1OCC(C)=O [Compound 24] | 5 (0) | 5 (0) | 2 (41-60) | 5 (0) | 5 (0) | 5 (0) | 0 (100) | – | – | – | – | – | – | – | – | –
178 to 179.6 °C | CCC(=O)Oc1c(C(=O)c2cc(C)c3c(c2C)C(C)(C)CCS3)cnn1CC [Compound 19] | 5 (0) | 5 (0) | 2 (41-60) | 5 (0) | 5 (0) | 5 (0) | 0 (100) | – | – | – | – | – | – | – | – | –
– | CCCCS(=O)(=O)Oc1c(C(=O)c2cc(C)c3c(c2C)C(C)(C)CCS3(=O)=O)cnn1CC [Compound 10] | 5 (0) | 3 (21-40) | 2 (41-60) | 5 (0) | 5 (0) | 5 (0) | 0 (100) | 0 (100) | 5 (0) | 5 (0) | – | – | – | – | – | –
164.1 to 165.7 °C | CCn1ncc(C(=O)c2cc(C)c3c(c2C)C(C)(C)CCS3)c1OS(=O)(=O)CC [Compound 8] | – | 5 (0) | 4 (1-20) | 4 (1-20) | 5 (0) | 5 (0) | 0 (100) | – | – | – | – | – | – | – | – | –
– | CCCCCCCCS(=O)(=O)Oc1c(C(=O)c2cc(C)c3c(c2C)C(C)(C)CCS3(=O)=O)cnn1CC [Compound 11] | 1 (61-80) | 3 (21-40) | 2 (41-60) | 3 (21-40) | 5 (0) | 5 (0) | 0 (100) | 0 (100) | 5 (0) | 5 (0) | – | – | – | – | – | –
202.2 to 203.4 °C | CCn1ncc(C(=O)c2cc(C)c3c(c2C)C(C)(C)CCS3(=O)=O)c1OS(C)(=O)=O [Compound 7, 4,4,5,8-tetramethyl-6-(1-ethyl-5-methanesulfonyloxypyrazol-4-yl)carbonylthiochroman-1,1-dioxide] | 5 (0) | 5 (0) | 4 (1-20) | 5 (0) | 5 (0) | 5 (0) | 0 (100) | – | – | – | – | – | – | – | – | –
– | CCn1ncc(C(=O)c2cc(C)c3c(c2C)C(C)(C)CCS3(=O)=O)c1OS(=O)(=O)c1ccccc1C [Compound 16] | 5 (0) | 5 (0) | 5 (0) | 5 (0) | 5 (0) | 5 (0) | 0 (100) | 0 (100) | 5 (0) | 2 (41-60) | 0 (100) | – | 5 (0) | – | 5 (0) | –

SMILES | melting point | Herbicidal Efficacy slender amaranth (slender amaranth) | Herbicidal Efficacy cocklebur (cocklebur) | Herbicidal Efficacy green foxtail (green foxtail) | Herbicidal Efficacy barnyard grass (barnyard grass [1]) | Herbicidal Efficacy velvetleaf (velvetleaf) | Herbicidal Efficacy large crabgrass (large crabgrass) | Phyto-toxicity to corn (corn) | Phytotoxicity to paddy rice (paddy rice; dosage 1 g a.i./10 are) | Herbicidal Effficacy barnyard grass (barnyard grass [2]; dosage 1 g a.i./10 are) | Herbicidal Effficacy umbrella plant (umbrella plant; dosage 1 g a.i./10 are) | Phytotoxicity to paddy rice (paddy rice; dosage 3 g a.i./10 are) | Phytotoxicity to paddy rice (paddy rice; dosage 10 g a.i./10 are) | Herbicidal Effficacy barnyard grass (barnyard grass [2]; dosage 3 g a.i./10 are) | Herbicidal Effficacy barnyard grass (barnyard grass [2]; dosage 10 g a.i./10 are) | Herbicidal Effficacy umbrella plant (umbrella plant; dosage 3 g a.i./10 are) | Herbicidal Effficacy umbrella plant (umbrella plant; dosage 10 g a.i./10 are)
CCn1ncc(C(=O)c2cc(C)c3c(c2C)C(C)(C)CCS3(=O)=O)c1OC(C)=O [Compound 18, 4,4,5,8-tetramethyl-6-(1-ethyl-5-acetoxypyrazol-4-yl)carbonylthiochroman-1,1-dioxide] | 187.7 to 191.4 °C | 5 (0) | 5 (0) | 4 (1-20) | 5 (0) | 5 (0) | 5 (0) | 0 (100) | – | – | – | – | – | – | – | – | –
